The subject of series [1] is Vero, HepG2, and Caco-2 cell lines. Particulars: ref [36], [37], cited from earlier work. From the text: The use of bacteriocins as antibacterial agents offers a promising solution to some of the most challenging public health problems today, such as the emergence of difficult-to-treat infections caused by antibiotic-resistant pathogens ([29]) or the breakouts of foodborne diseases ([30]). Here, we have identified nine new bacteriocins of which five (MurA, MsnC, RhmB, AglA, and LcbC) could have potential in the treatment of infections caused by vancomycin-resistant Enterococcus faecium and Enterococcus faecalis strains ([31]), and four (MurA, MsnC, RhmB, and AglA) in the prevention of L. monocyto ...

Series [2] has as its target Man-PTS membrane complex IICIID of L. garvieae (ManCD) (L. garvieae (endogenous in L. garvieae IBB3403)).
For series [3], the system named is Spontaneous Man-PTS mutants of L. lactis IL1403. Description: 2-fold serial dilutions sensitivity assay, Table S3. It counts as cell-based, Lactococcus lactis. From the text: (§1) To identify the individual amino acid residues of Man-PTS required for the sensitivity to the newly defined bacteriocins, and thus probably involved in their interaction with the receptor, spontaneous mutants of L. lactis IL1403 and L. garvieae IBB3403 with resistance to individual bacteriocins and preserved Man-PTS functionality were selected. Out of the nine new bacteriocins, five (GarAG3, RhmB, LcnC, EntG1, and MurA) were potent enough to produce resistant mutants in their presence. In total, 34 resistant L. lactis IL1403 mutants were obtained, including three selected in the presence of RhmB, 15 in the presence of EntG1, 2—LcnC, and 14—MurA; 38 resistant L. garvieae IBB3403 mutants were obtained in the presence of GarAG3 (Table S1). They were 4- to over 1,024-fold less sensitive to the bacteriocin used for the selection than the parental strain and carried, respectively, a combined total of 11 and 10 independent mutations in the ptnCD genes of L. lactis IL1403 and the manCD genes of L. garvieae IBB3403. Ten mutations in L. lactis led to amino acid substitutions in IIC (Gly62Val, Ala110Thr, Met120Ile, and Ala187Val) or IID (Gly126Ser, Ala127Thr, Ser214Leu, Gly221Cys, Tyr223Cys, and Gly229Val), and one led to the deletion of eight amino acids (221-228GlyAlaTyrLeuGluPheProLys) in IID.
(§2) The activity of peptides of interest against indicator strains and L. garvieae IBB3403- or L. lactis IL1403-derived strains was determined using the spot-on-lawn assay as described previously ([7]). Spontaneous bacteriocin-resistant mutants were selected by growing L. garvieae IBB3403 or L. lactis IL1403 in the presence of a bacteriocin in CDM ([43]) supplemented with 1% mannose (Man-CDM) as described previously ([7]). GarAG3-resistant L. garvieae IBB3403 mutants (LG1—LG32, LG34–LG38, and LG40) were selected at the bacteriocin concentration of 0.024 µg/mL. L. lactis IL1403 mutants resistant to EntG1 (LLG1–LLG3, LLG7–LLG9, LLG11, LLG12, LLG14, LLG19, LLG21, LLG25, LLG32, LLG46, and LLG50), RhmB (LLB2, LLB3, and LLB17), MurA (LLA1, LLA7, LLA8, LLA12, LLA19–LLA22, LLA24, and LLA26–LLA30), and LcnC (LLC1, LLC2) were selected at bacteriocin concentrations of 12.5µg/mL, 1.56µg/mL, 1.56 µg/mL, and 4 ng/mL, respectively. The sensitivity of the mutants was determined using 2-fold serial dilutions assay as described previously ([7]).
Table S3. Spontaneous mutants of L. lactis IL1403 resistant to RhmB, EntG1, LcnC, MurA, GarQ, BacSJ, ubericin K, and GarC
(§3) Sensitivity to Position in the cell
(§4) Mutant strain Mutation Amino acid change [fold-decreased relative to WT] membrane of affected
RhmB EntG1 LcnC MurA GarQ BacSJ Ubericin GarC Man-PTS amino acid(s)
mutations GlyAlaTyrLeuGluPheProLys
“>” substitution; “del”deletion

The subject of series [4] is Spontaneous Man-PTS mutants of L. garvieae IBB3403. Kind of series: 2-fold serial dilutions sensitivity assay, Table S4. Type of series: cell-based, Lactococcus garvieae.
Description: as §1, §2
Table S4. Spontaneous mutants of L. garvieae IBB3403 resistant to GarAG3, GarA, GarB, GarC, GarQ, MurA, and ubericin K
as §3, §4
GarAG3 GarA GarB GarC GarQ MurA Ubericin Man-PTS amino acid(s)
LG9 manD: 800G>T ManD: Gly267Val 16x 0x 8x 2x 4x 0.5x 4x extracellular (region γ+)
TTGTTGGTAACG 262_265delAsnValValGly
GTAACGGTGTTG 265_268delGlyAsnGlyVal
LGA10 manD: 173C>A ManD: Ala58Asp 8x 2x 4x 4x 2x 2x 8x transmembrane (HP2a)
5 μl of each bacteriocin at a concentration of 1 mg/ml was used; “>” substitution; “del”deletion; “ins” insertion

Read-outs that look alike come from different tables or passages of the source. Ends that are not written are not given here.

Regarding “PedPA-1: subclass IIa pediocin-like bacteriocin (KYYGNGVTCGKHSCSVDWGKATTCIINNGAMAWATGGHQGNHKC; ends and bridges not checked; cysteine pairing not given here; UniProt P29430 19-62, looked up)”, the Cytotoxicity result in series [1] (up to 400 μg/mL) is given as “no cytotoxicity”.

GarQ_(Tyr11Leu) (peptide): the minimum inhibitory concentration against L. garvieae IBB3403, fold decrease in activity relative to native GarQ in series [2] is above 512 fold.

With GarQ_(Asn9Gly) (peptide), in series [2], the minimum inhibitory concentration against L. garvieae IBB3403, fold decrease in activity relative to native GarQ was above 512 fold.

“EYHLMNGANGYLTRVNGKYVYRVTKDPVSAVFGVISNGWGSAGAGFGPQH [GarQ]”: the “Sensitivity to [fold-decreased relative to WT]” value in series [3] (LLA1 etc. (MurA-resistant), PtnC: Ala110Thr) is recorded as 4 x; in series [3] (LLB2,LLB3, PtnD: Gly126Ser), 0 x; in series [3] (LLB17, PtnD: Ser214Leu), 256 x; in series [3] (LLC1, LLC2, PtnC: Gly62Val), 64 x; in series [3] (LLG1, LLG2, PtnD: 221-228del) it was 16 x; in series [3] (LLG3, LLG9, LLG11, LLG32, LLG46, PtnD: Gly229Val), 16 x. Moreover, the “Sensitivity to [fold-decreased relative to WT]” value in series [3] (LLG7, LLG19, LLG21, PtnD: Ala127Thr) is on record as 8 x; in series [3] (LLG8, PtnD: Gly221Cys), 16 x; in series [3] (LLG12, LLG14, PtnC: Ala187Val) it was 8 x; in series [3] (LLG25, PtnD: Tyr223Cys), 16 x; in series [3] (LLG50, PtnC: Met120Ile), 4 x; in series [3] (LLN1, PtnD: Pro123His), above 1024 x. The “Sensitivity to [fold-decreased relative to WT]” value in series [3] (M6, PtnD: Arg200His) stood at 8 x; in series [3] (M16, PtnD: Leu83Phe), 0 x; in series [3] (M19, PtnD: Phe226Ser), 8 x; in series [3] (M30, PtnD: Leu197Phe), 16 x; in series [4] (LG1 etc., ManD: Arg203Leu), 0 x; in series [4] (LG2, ManC: Gly60Cys) it was 32 x. The “Sensitivity to [fold-decreased relative to WT]” value is 16 x in series [4] (LG6, ManD: Trp256Leu); 4 x in series [4] (LG9, ManD: Gly267Val); 2 x in series [4] (LG11, 13, 22, 28, ManD: Arg203Cys); 4 x in series [4] (LG12, ManD: 262_265delAsnValValGly); 4 x in series [4] (LG18, ManD: 265_268delGlyAsnGlyVal); 4 x in series [4] (LG23, 29, ManC: Gly188Val). Besides, the “Sensitivity to [fold-decreased relative to WT]” value in series [4] (LG32, ManD: Ser318Leu) came out at 2 x; in series [4] (LG36, ManC: Gly60Val), 128 x; in series [4] (LGA2, ManC: Leu59Pro), 128 x; in series [4] (LGA3, ManC: Gly52Val), 4 x; in series [4] (LGA6, ManC:190_191insVal), 4 x; in series [4] (LGA10, ManD: Ala58Asp), 2 x. The “Sensitivity to [fold-decreased relative to WT]” value is recorded as 2 x in series [4] (LGB6, ManD: Gln313Lys); 0 x in series [4] (LGC1, ManD: Met34Ile); 16 x in series [4] (LGC8, ManD: Tyr226Asp); 4 x in series [4] (LGC13, ManC: Ala106Val); 4 x in series [4] (LGC15, ManD: Ala133Val, Val315Met); above 1024 x in series [4] (LGN1, ManD: Gly301Val). Further, the “Sensitivity to [fold-decreased relative to WT]” value in series [4] (LGN2, ManD: Ala133Val) is given as 16 x; in series [4] (LGN9, ManC: Ala102Val) it was 16 x; in series [4] (PW202, ManC: Pro100His), above 1024 x; in series [4] (PW203, ManD: Thr123Ile), above 1024 x; in series [4] (PW204, ManD: Pro111Ser), above 1024 x. For the same substance, in series [1] (highly purified, concentrations up to 1 mg/mL), the Cytotoxicity entry was “no cytotoxicity”.

The values above are taken from PMC11403280, “Subclass IId bacteriocins targeting mannose phosphotransferase system—Structural diversity and implications for receptor interaction and antimicrobial activity” (PNAS Nexus, 2024).
